Data from patent US20020041862A1 (priority 1999, published 2002).
Entries after “also recorded” stand apart in the source; their conditions may differ.

Experiments:
[1] = target: T1, PrP^Sc in ScN2a cells (Mus musculus, UniProt P04925); settings: cited from earlier work
[2] = target: T1, PrP^Sc in ScN2a cells; settings: cited from earlier work; remark: listed apart in the source
[3] = target: T1, PrP^Sc in ScN2a cells; type: cell-based

T1 sequence (P04925 23-230 limits assumed): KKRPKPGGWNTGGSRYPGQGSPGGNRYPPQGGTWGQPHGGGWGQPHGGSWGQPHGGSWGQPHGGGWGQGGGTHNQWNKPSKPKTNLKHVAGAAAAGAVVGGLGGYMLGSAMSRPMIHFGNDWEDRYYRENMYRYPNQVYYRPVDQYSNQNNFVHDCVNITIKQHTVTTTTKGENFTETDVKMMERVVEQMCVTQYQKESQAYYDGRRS

Compound	formation of PrP^Sc [1]	reduction of pre-existing PrP^Sc levels [2]	effect of lysosomotropic agent alone on PrP^Sc levels [2]	effect of lysosomotropic agent on ability of PEI to eliminate PrP^Sc [3]
C[S+](C)[O-] [DMSO, dimethyl sulfoxide]	inhibit the formation of new PrP^Sc	cannot reduce pre-existing PrP^Sc levels		
CCN(CC)CCCC(C)Nc1ccnc2cc(Cl)ccc12 (centres unmarked) [chloroquine]	do not interfere with the formation of PrP^Sc		have no effect on PrP^Sc levels	blocked the ability of PEI to eliminate PrP^Sc; also recorded: clear bands for PrP^Sc
OCC(O)CO [glycerol]	inhibit the formation of new PrP^Sc	cannot reduce pre-existing PrP^Sc levels		
CC[C@@]1([C@@H]2O[C@@H]([C@H]3O[C@@](O)(CO)[C@H](C)C[C@@H]3C)C[C@@H]2C)CC[C@H]([C@]2(C)CC[C@]3(C[C@H](O)[C@@H](C)[C@@H]([C@@H](C)[C@@H](OC)[C@H](C)C(=O)O)O3)O2)O1 [monensin]	do not interfere with the formation of PrP^Sc			
NH4Cl	do not interfere with the formation of PrP^Sc		have no effect on PrP^Sc levels	failure of NH4Cl to affect PrP^Sc levels; also recorded: barely detectable amounts of PrP^Sc
